Measurements from patent US6506339B1, “Method of sterilization” (Biomedical Design, Inc., priority 1997, dated 2003).
Marks after values point to notes of the source that are not given here.

Assays:
[1] = system: Bacillus pumilus ATCC 27142 spores; experiment: Sterilization in cups at about 38° C. (Example 6); type: cell-based; settings: 25 mM EDC, 20% isopropanol
Procedure: (§1) In view of the foregoing verification, it was decided to test the effectiveness of the sterilization process against other bacteria using sterile cups. Added to each of the cups is 20 ml of 10 mM HEPES, 0.85%, Nacl, 20% isopropanol, pH 6.5, containing 25 mM EDC without any coupling enhancer, before the cups are placed in a incubator at about 38° C. When the solution temperature reached about 38° C., approximately 10^5-10^6 organisms were inoculated into the solution. The tests were carried out in triplicate. The following four isolated were tested in the form of sporous suspensions: Clostridium sporogenes ATCC 3584, Bacillus pumilus ATCC 27142, Chaetonium globosom ATCC 6205, and Microacus cinereus ATCC 16594. The following three isolates were tested as vegetative cells: Mycobacterium chelonae ATCC 35752, Methylbacterium extorquens ATCC 43645 and Trichosporon aquatile ATCC 22310. The inoculated systems were allowed to incubate for 1 hour, for 5 hours or for 24 hours, and the solutions were then filtered through a 0.45 micron filter. After rinsing, the filter was placed on a TSA plate as described in Example 1. Negative and positive controls indicate that the tests were valid. The results are set forth in Table D which follows wherein the number of CFUs in the inoculum is expressed as its log to the base 10, e.g. 3.4×10^5=5.5: […]

[2] = system: Trichosporon aquatile ATCC 22310 vegetative cells; experiment: Sterilization in cups at about 38° C. (Example 6); type: cell-based; settings: 25 mM EDC, 20% isopropanol, inoculum Log 10 4.3
Procedure: as §1

[3] = system: Mycobacterium chelonae ATCC 35752 vegetative cells; experiment: Sterilization in cups at about 38° C. (Example 6); type: cell-based; settings: 25 mM EDC, 20% isopropanol, 1 Hour, inoculum Log 10 5.15
Procedure: as §1

[4] = system: Clostridium sporogenes ATCC 3584 spores; experiment: Sterilization in cups at about 38° C. (Example 6); type: cell-based; settings: 25 mM EDC, 20% isopropanol
Procedure: as §1

[5] = system: spores of Bacillus subtilis; experiment: Two sequential spore inoculations on cross-linked porcine valves (Example 5); type: cell-based; settings: 25 mM EDC, 20% isopropyl alcohol, 40° C.
Procedure: An experiment was also designed to test the bactericidal activity of the EDC treatment using two sequential inoculations of at least 1×10^6 spores of Bacillus subtilis per sample. In the first step, 1.43×10^6 spores (Log10=6.2) were inoculated in triplicate for 10 minutes onto 45 porcine valves which had been cross-linked using a method as described in the above-mentioned patent and patent application. Solutions of 25 mM EDC in 10 mM HEPES, 0.85% NaCl, 20% isopropyl alcohol, at pH 6.5 were poured into the cups containing the valve samples. After 2, 4, 6, and 8 hours of incubation at 40° C., the total surviving spores from 12 samples (solution plus tissue) were counted. After 8 hours of incubation, an additional 1.2×10^6 (Log10=6.1) spores were added to the remaining 33 samples. Summarizing, these remaining 33 samples were thus inoculated at t=0 with 1.43×10^6 spores and at t=8 with 1.2×10^6 spores. After various durations of incubation (see Table C for details), the surviving spores in solution and on the valve tissue were removed by filtering and incubated on TSA plates as described above. The positive and negative controls were determined to be valid for the test.

[6] = system: Bacillus subtilis (niger) spores; experiment: Sterilization without isopropyl alcohol and sulfo-NHS, cups with or without porcine valve tissue (Example 4B); type: cell-based; settings: 40° C., no isopropyl alcohol or sulfo-NHS
Procedure: An experiment similar to that of Example 2 is carried out using EDC as a coupling agent in the absence of isopropyl alcohol and sulfo-NHS. Bacillus subtilis (niger) spores at levels of about 10^6 are inoculated in sterile cups, some of which contain cross-linked porcine aortic valve tissue, for approximately 10 minutes. Solutions (50 ml) of 25, 50 and 70 mM EDC in 10 mM TRIS, 0.85% NaCl, pH 6.5, are prewarmed to 40° C., respectively added to the cups, and incubated at 40° C. for 1 to 3 days. The solutions are then diluted and filtered in order to collect microorganisms. The valve tissue is washed for 20 minutes in a reciprocating shaker in the presence of peptone water containing polyethylenesorbitan monooleate (Tween 80) in order to extract all spores of microorganisms from the tissue; the peptone water solution is added to the corresponding filter. Next, the filters are rinsed with a 0.1% peptone water solution to eliminate any residual EDC and incubated on TSA plates for 14 days. The plates are examined every day for growth, counting the colony forming units (CFUs).

[7] = system: Chaetonium globosom ATCC 6205 spores; experiment: Sterilization in cups at about 38° C. (Example 6); type: cell-based, Chaetonium globosum; settings: 25 mM EDC, 20% isopropanol, inoculum Log 10 ˜4.7
Procedure: as §1

[8] = 28 to 56 hours, rechallenge with 1.2×10^6 spores at 8 hours, mean of three samples
[9] = 2 hours, inoculum 1.43×10^6, mean of three samples
[10] = 4 hours, inoculum 1.43×10^6, mean of three samples
[11] = 6 hours, inoculum 1.43×10^6, mean of three samples
[12] = 8 hours, inoculum 1.43×10^6, mean of three samples
[13] = 11 hours, rechallenge with 1.2×10^6 spores at 8 hours, mean of three samples
[14] = 14 hours, rechallenge with 1.2×10^6 spores at 8 hours, mean of three samples
[15] = 20 hours, rechallenge with 1.2×10^6 spores at 8 hours, mean of three samples
[16] = 24 hours, rechallenge with 1.2×10^6 spores at 8 hours, mean of three samples

For `CCN=C=NCCCN(C)C.Cl` [EDC, 1-ethyl-3(3-dimethylaminopropyl)carbodiimide hydrochloride], which “Log REDUCTION” value ([1]; 1 Hour, inoculum Log 10 5.45) is on record?
Its value is 3.68.

What about the “Log REDUCTION” value ([1]; 5 Hours, inoculum Log 10 5.45) of the same compound?
Its value is 4.41.

What about the “Log REDUCTION” value ([1]; 24 Hours, inoculum Log 10 5.22) of the same compound?
The value was 5.22.

What about the “Log REDUCTION” value ([2]; 1 Hour) of the same compound?
Its value is 4.3.

What about the “Log REDUCTION” value ([2]; 5 Hours) of the same compound?
Its value is 4.3.

And the “Log REDUCTION” value [3]?
Its value is 5.15.

And the “Log REDUCTION” value ([4]; 1 Hour, inoculum Log 10 4.6)?
Its value is 2.12.

What about the “Log REDUCTION” value ([4]; 5 Hours, inoculum Log 10 4.6) of the same compound?
Its value is 3.02.

And the “Log REDUCTION” value ([4]; 24 Hours, inoculum Log 10 3.65)?
The value was 3.65.

What about the “LOG REDUCTION” value [5, 8] of the same compound?
The value was 6.1.

What about the “Total Survivors # CFUs” value [5, 8] of the same compound?
The value was 0 CFUs.

And the “Total Survivors Log 10” value [5, 8]?
The value was 0 Log 10.

What about the “LOG REDUCTION” value [5, 9] of the same compound?
Its value is 4.5.

What about the “Total Survivors # CFUs” value [5, 9] of the same compound?
Its value is 58 CFUs.

What about the “Total Survivors Log 10” value [5, 9] of the same compound?
Its value is 1.7 Log 10.

What about the “LOG REDUCTION” value [5, 10] of the same compound?
Its value is 5.6.

What about the “Total Survivors # CFUs” value [5, 10] of the same compound?
Its value is 4 CFUs.

What about the “Total Survivors Log 10” value [5, 10] of the same compound?
The value was 0.5 Log 10.

What about the “LOG REDUCTION” value [5, 11] of the same compound?
Its value is 6.2.

And the “Total Survivors # CFUs” value [5, 11]?
The value was 0 CFUs.

And the “Total Survivors Log 10” value [5, 11]?
The value was 0 Log 10.

What about the “LOG REDUCTION” value [5, 12] of the same compound?
Its value is 6.2.

And the “Total Survivors # CFUs” value [5, 12]?
Its value is 0 CFUs.

What about the “Total Survivors Log 10” value [5, 12] of the same compound?
The value was 0 Log 10.

What about the “LOG REDUCTION” value [5, 13] of the same compound?
Its value is 3.7.

What about the “Total Survivors # CFUs” value [5, 13] of the same compound?
The value was 300 CFUs.

And the “Total Survivors Log 10” value [5, 13]?
Its value is 2.5 Log 10.

And the “LOG REDUCTION” value [5, 14]?
The value was 6.1.

What about the “Total Survivors # CFUs” value [5, 14] of the same compound?
Its value is 0 CFUs.

What about the “Total Survivors Log 10” value [5, 14] of the same compound?
Its value is 0 Log 10.

And the “LOG REDUCTION” value [5, 15]?
Its value is 6.1.

And the “Total Survivors # CFUs” value [5, 15]?
Its value is 0 CFUs.

What about the “Total Survivors Log 10” value [5, 15] of the same compound?
The value was 0 Log 10.

And the “LOG REDUCTION” value [5, 16]?
Its value is 6.1.

And the “Total Survivors # CFUs” value [5, 16]?
The value was 0 CFUs.

And the “Total Survivors Log 10” value [5, 16]?
The value was 0 Log 10.

What about the “time within which effective sterilization (inactivation of 1×10^6 spores) occurs” value ([6]; 25 mM EDC) of the same compound?
The value was ≤ 24 hours.

And the “time within which effective sterilization (inactivation of 1×10^6 spores) occurs” value ([6]; 50 mM EDC)?
Its value is ≤ 24 hours.

What about the “time within which effective sterilization (inactivation of 1×10^6 spores) occurs” value ([6]; 70 mM EDC) of the same compound?
The value was ≤ 24 hours.

What about the “hours of incubation of plates after which no growth was observed” value ([7]; 5 Hours treatment) of the same compound?
The value was “(72 hrs.)*”.

What about the “hours of incubation of plates after which no growth was observed” value ([7]; 24 Hours treatment) of the same compound?
Its value is “(96 hrs.)*”.
